Our source for the AC50 values is ChEMBL document CHEMBL5291721, “A preclinical secondary pharmacology resource illuminates target-adverse drug reaction associations of marketed drugs” (Nat Commun, 2023).

Where only a bound is given, the exact number is not on record here.

The target of assay [1] is T1, Neuropeptide Y receptor type 1 (Homo sapiens, UniProt P25929).
T1 sequence (P25929 whole entry): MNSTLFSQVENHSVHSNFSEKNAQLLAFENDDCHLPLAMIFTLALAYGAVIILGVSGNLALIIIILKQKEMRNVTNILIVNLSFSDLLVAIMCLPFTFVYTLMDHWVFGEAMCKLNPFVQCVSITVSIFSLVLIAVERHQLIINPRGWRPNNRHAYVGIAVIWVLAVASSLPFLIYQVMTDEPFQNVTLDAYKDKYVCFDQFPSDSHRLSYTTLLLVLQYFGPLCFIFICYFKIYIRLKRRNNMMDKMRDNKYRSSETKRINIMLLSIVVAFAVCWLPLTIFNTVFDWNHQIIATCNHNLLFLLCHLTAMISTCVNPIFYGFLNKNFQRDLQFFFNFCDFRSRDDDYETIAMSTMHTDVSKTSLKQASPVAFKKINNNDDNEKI

The target of the next assay is Adenosine receptor A2a (Homo sapiens, UniProt P29274).
Adenosine receptor A2a, sequence (P29274 whole entry): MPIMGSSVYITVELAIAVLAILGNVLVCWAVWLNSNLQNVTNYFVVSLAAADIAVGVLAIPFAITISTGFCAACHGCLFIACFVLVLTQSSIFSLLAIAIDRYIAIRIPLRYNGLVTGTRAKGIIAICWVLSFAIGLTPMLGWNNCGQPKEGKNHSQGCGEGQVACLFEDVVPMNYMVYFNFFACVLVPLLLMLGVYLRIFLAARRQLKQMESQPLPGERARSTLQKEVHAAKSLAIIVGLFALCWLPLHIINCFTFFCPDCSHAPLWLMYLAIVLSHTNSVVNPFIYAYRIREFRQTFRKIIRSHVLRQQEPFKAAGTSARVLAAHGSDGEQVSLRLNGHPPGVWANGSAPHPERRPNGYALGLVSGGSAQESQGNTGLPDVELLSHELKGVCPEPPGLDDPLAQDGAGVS
The target in the next assay is T2, Progesterone receptor (Homo sapiens, UniProt P06401).
T2 sequence (P06401 whole entry): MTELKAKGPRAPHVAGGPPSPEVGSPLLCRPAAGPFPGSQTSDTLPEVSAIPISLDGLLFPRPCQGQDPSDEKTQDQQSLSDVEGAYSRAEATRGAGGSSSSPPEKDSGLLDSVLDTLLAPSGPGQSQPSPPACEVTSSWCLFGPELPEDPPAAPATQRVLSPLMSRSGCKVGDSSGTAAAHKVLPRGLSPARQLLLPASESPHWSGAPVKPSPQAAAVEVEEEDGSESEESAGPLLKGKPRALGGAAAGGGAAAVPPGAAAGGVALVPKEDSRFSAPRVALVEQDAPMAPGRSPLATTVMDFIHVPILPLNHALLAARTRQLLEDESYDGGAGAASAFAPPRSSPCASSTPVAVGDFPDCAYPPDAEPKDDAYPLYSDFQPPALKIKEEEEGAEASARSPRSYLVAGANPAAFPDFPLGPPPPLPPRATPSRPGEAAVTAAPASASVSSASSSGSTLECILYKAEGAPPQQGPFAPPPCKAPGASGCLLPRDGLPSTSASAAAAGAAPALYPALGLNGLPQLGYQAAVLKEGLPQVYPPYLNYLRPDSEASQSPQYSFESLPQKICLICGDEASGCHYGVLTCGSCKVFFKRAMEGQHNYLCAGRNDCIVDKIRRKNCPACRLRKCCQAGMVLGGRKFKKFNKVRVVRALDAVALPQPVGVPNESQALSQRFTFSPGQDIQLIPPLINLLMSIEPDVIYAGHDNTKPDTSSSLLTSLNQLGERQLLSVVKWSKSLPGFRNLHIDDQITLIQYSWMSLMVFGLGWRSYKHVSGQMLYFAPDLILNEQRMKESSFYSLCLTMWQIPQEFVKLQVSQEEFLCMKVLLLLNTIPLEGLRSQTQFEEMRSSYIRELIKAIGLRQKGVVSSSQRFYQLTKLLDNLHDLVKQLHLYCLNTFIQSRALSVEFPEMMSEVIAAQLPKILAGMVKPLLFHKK
The class given is functional.

In assay [2] the target is T3, Alpha-2A adrenergic receptor (Homo sapiens, UniProt P08913).
T3 sequence (P08913 whole entry): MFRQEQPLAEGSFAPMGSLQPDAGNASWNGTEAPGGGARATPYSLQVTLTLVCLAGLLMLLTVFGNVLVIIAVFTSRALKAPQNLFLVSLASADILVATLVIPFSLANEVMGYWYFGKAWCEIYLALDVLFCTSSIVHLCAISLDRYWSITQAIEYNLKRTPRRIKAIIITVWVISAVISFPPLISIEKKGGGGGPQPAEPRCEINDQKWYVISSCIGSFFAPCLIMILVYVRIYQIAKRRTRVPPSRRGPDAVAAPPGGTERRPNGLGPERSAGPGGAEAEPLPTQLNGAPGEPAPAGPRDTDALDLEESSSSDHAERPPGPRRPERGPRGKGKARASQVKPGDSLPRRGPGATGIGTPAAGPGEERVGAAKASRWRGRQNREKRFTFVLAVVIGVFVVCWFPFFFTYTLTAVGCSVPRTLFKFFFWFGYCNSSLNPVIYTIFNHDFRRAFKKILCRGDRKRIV
Type of assay: functional, cell-based.

The target of assay [3] is 5-hydroxytryptamine receptor 2B (Homo sapiens, UniProt P41595). The class given is functional, cell-based.
5-hydroxytryptamine receptor 2B, sequence (P41595 whole entry): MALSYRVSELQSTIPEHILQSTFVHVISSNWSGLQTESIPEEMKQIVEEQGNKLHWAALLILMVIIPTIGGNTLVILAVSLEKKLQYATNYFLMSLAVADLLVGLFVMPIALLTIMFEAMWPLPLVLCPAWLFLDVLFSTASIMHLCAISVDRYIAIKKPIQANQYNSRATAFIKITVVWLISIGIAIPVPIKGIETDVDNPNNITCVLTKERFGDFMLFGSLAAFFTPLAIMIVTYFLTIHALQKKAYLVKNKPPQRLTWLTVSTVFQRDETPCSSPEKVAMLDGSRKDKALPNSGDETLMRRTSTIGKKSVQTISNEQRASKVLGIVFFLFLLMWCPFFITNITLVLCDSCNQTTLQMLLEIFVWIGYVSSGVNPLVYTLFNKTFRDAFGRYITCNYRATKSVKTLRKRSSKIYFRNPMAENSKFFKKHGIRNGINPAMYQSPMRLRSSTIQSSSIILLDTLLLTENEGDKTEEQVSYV
The target of assay [4] is Beta-1 adrenergic receptor (Homo sapiens, UniProt P08588). Type of assay: functional.
Beta-1 adrenergic receptor, sequence (P08588 whole entry): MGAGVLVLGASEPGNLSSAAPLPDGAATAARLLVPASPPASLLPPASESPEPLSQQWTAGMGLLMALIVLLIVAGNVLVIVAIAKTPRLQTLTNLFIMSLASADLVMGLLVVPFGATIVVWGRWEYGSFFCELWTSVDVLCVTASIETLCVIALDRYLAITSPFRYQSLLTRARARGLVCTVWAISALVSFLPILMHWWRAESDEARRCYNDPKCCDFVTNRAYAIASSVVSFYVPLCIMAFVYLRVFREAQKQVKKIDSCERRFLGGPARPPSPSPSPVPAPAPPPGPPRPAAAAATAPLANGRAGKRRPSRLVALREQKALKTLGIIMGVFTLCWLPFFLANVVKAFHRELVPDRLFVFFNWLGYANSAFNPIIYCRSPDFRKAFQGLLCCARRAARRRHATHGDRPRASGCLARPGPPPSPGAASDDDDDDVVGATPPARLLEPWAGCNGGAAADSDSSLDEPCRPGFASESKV
The next assay deals with T4, Adenosine receptor A1 (Homo sapiens, UniProt P30542).
T4 sequence (P30542 whole entry): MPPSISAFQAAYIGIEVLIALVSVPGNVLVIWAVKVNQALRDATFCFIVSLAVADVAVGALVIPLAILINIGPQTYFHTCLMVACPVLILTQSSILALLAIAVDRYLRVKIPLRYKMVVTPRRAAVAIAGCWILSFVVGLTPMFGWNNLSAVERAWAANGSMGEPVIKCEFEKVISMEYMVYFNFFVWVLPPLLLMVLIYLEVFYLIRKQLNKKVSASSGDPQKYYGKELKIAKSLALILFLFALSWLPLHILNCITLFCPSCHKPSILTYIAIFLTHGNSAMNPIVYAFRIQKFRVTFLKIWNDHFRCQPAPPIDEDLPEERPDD

Assay [5] addresses T5, Muscarinic acetylcholine receptor M2 (Homo sapiens, UniProt P08172).
T5 sequence (P08172 whole entry): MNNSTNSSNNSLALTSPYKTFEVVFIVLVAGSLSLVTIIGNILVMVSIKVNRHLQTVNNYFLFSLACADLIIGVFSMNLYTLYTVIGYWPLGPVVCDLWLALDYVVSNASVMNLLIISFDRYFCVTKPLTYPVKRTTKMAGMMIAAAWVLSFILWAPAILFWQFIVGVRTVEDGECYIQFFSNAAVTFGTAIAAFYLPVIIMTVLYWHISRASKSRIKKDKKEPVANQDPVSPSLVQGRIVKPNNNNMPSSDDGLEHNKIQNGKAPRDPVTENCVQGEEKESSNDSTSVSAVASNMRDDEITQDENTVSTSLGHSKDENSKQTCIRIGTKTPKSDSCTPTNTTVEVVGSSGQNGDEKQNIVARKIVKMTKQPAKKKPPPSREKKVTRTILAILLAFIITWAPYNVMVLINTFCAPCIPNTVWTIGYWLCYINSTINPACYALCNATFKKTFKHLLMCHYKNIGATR
The class given is functional, cell-based.
Further: assay procedure not described here.

For the molecule `N=C(N)NC(=O)c1nc(Cl)c(N)nc1N` [AMILORIDE], the AC50 (in assay [1]; on Adenosine receptor A2a; on Progesterone receptor; in assay [2]; in assay [3]; in assay [4]) was above 30 µM each time. Further, the AC50 (at Adenosine receptor A1; in assay [5]) was above 30 µM throughout.

Take `COc1ccc(-c2cc(=S)ss2)cc1` [ANETHOLTRITHION]: the AC50 is 9.8 µM in assay [1]; 11 µM on Adenosine receptor A2a; 15 µM on Progesterone receptor; above 30 µM in assay [2]; above 30 µM in assay [3]; above 10 µM in assay [4]. In addition, the AC50 at Adenosine receptor A1 is 5.9 µM; in assay [5] it was above 30 µM.

On to `CC(C)(C)NCC(O)COc1ccccc1C#N` (configuration not stated) [BUNITROLOL], for which the AC50 in assay [2] was above 30 µM; in assay [3] it was 21 µM; in assay [5], above 30 µM.

Consider `C[C@]12CCC(=O)C=C1C=C[C@@H]1[C@@H]2CC[C@@]2(C)[C@H]1CC[C@@]21CCC(=O)O1` [CANRENONE], for which the AC50 was above 30 µM in assay [1]; above 30 µM on Adenosine receptor A2a; 0.2 µM on Progesterone receptor; above 30 µM in assay [2]; above 30 µM in assay [3]; above 30 µM in assay [4]. The AC50 (at Adenosine receptor A1; in assay [5]) was above 30 µM each time.

Take `CN(C)CCC(O)(c1ccccc1)c1ccccc1Cl` (configuration not stated) [CHLOPHEDIANOL]: the AC50 (in assay [1]; on Adenosine receptor A2a; on Progesterone receptor; in assay [2]; in assay [3]; in assay [4]) was above 10 µM throughout. For the same molecule, the AC50 (on Adenosine receptor A1; in assay [5]) was above 10 µM throughout.

As to `C[C@]12C=CC(=O)C=C1C(Cl)=C[C@@H]1[C@@H]2[C@@H](O)C[C@@]2(C)[C@H]1CC[C@]2(O)C(=O)CO` [CLOPREDNOL], the AC50 in assay [1] was above 30 µM; at Adenosine receptor A2a, above 30 µM; at Progesterone receptor it was 2.1 µM; in assay [2] it was above 30 µM; in assay [3], above 30 µM; in assay [4], above 30 µM. In addition, the AC50 (at Adenosine receptor A1; in assay [5]) was above 30 µM throughout.

For `COc1cccc2c1C(=O)c1c(O)c3c(c(O)c1C2=O)C[C@@](O)(C(=O)CO)C[C@@H]3O[C@H]1C[C@H](N)[C@H](O)[C@H](C)O1` [DOXORUBICIN], the AC50 was above 30 µM in assay [1]; above 30 µM on Adenosine receptor A2a; above 30 µM on Progesterone receptor; above 10 µM in assay [2]; 15 µM in assay [3]; above 30 µM in assay [4]. The figures for the AC50 (on Adenosine receptor A1; in assay [5]) were above 30 µM and above 10 µM, respectively.

Turning to `C[C@]12CCC(=O)C=C1[C@@H]1C[C@@H]1[C@H]1[C@@H]3[C@@H]4C[C@@H]4[C@@]4(CCC(=O)O4)[C@@]3(C)CC[C@@H]12` [DROSPIRENONE], the AC50 is above 30 µM in assay [1]; above 30 µM at Adenosine receptor A2a; above 30 µM in assay [4]; above 30 µM at Adenosine receptor A1; 13 µM in assay [5].

Regarding `CC(C)(Oc1ccc(Cl)cc1)C(=O)OCCOC(=O)c1cccnc1` [ETOFIBRATE], the AC50 (in assay [1]; on Adenosine receptor A2a; on Progesterone receptor; in assay [2]; in assay [3]; in assay [4]) was above 30 µM in each case. For the same molecule, the AC50 (at Adenosine receptor A1; in assay [5]) was above 30 µM each time.

On to `CCn1c(=O)c2c(nc(/C=C/c3ccc(OC)c(OC)c3)n2C)n(CC)c1=O` [ISTRADEFYLLINE], for which the AC50 is above 30 µM on Progesterone receptor, 23 µM on Adenosine receptor A1 and above 30 µM in assay [5].

As for `COc1ccc(C(=O)c2ccccc2)c(O)c1` [OXYBENZONE], the AC50 in assay [2], in assay [3] and in assay [5] was above 30 µM in each case.

Consider `C[C@]12C=CC(=O)C=C1CC[C@@H]1[C@@H]2[C@@H](O)C[C@@]2(C)[C@H]1CC[C@]2(O)C(=O)CO` [PREDNISOLONE], for which the AC50 in assay [1] was above 30 µM; at Adenosine receptor A2a it was above 30 µM; in assay [2], above 10 µM; in assay [3] it was above 10 µM; in assay [4], above 10 µM; on Adenosine receptor A1, above 30 µM. The molecule also came in with an AC50 in assay [5] above 10 µM.

Turning to `CCC(=O)c1ccc2c(c1)N(CC(C)N(C)C)c1ccccc1S2` (configuration not stated) [PROPIOMAZINE], the AC50 was above 10 µM in assay [1]; above 10 µM on Adenosine receptor A2a; above 30 µM on Progesterone receptor; above 10 µM in assay [2]; 0.23 µM in assay [3]; above 10 µM in assay [4]. Further, the AC50 (on Adenosine receptor A1; in assay [5]) was above 10 µM each time.

As for `Cc1cn(-c2cc(NC(=O)c3ccc(C)c(Nc4nccc(-c5cnccn5)n4)c3)cc(C(F)(F)F)c2)cn1` [RADOTINIB], the AC50 (on Adenosine receptor A2a; on Progesterone receptor; in assay [4]; in assay [5]) was above 30 µM each time.

In the case of `CN(C)[C@@H]1C(O)=C(C(=O)NCN2CCCC2)C(=O)[C@@]2(O)C(O)=C3C(=O)c4c(O)cccc4[C@@](C)(O)[C@H]3C[C@@H]12` [ROLITETRACYCLINE], the AC50 was above 10 µM in assay [1]; above 10 µM on Adenosine receptor A2a; above 30 µM at Progesterone receptor; above 10 µM in assay [2]; above 10 µM in assay [3]; above 10 µM in assay [4]. Moreover, the AC50 (on Adenosine receptor A1; in assay [5]) was above 10 µM throughout.

As for `Cc1ccc(O)c([C@H](CCN(C(C)C)C(C)C)c2ccccc2)c1` [TOLTERODINE], the AC50 in assay [2], in assay [3] and in assay [4] was above 10 µM each time.

In the case of `Oc1cc(Cl)ccc1Oc1ccc(Cl)cc1Cl` [TRICLOSAN], the AC50 (in assay [1]; on Adenosine receptor A2a; on Progesterone receptor; in assay [2]; in assay [3]; in assay [4]) was above 30 µM each time. This molecule also registered an AC50 at Adenosine receptor A1 above 30 µM.
